This assay has as its system BDF1 mice, P388 leukemia ip, median survival T/C. The experiment in a line: NCI In Vivo Anticancer Drug Screen. Data for tumor model P388 Leukemia (intraperitoneal) in B6D2F1 (BDF1) mice. The note with it: endpoint: median survival time, higher = longer survival. In a few lines: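 Read-out is survival of treated animals expressed relative to the vehicle group, as a T/C ratio.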

[1] abbreviates: dose: 50.0 mg/kg/injection, schedule: Q01DX005 (ip), vehicle: saline with Tween-80.
The mark [2] stands for this setting: dose: 100.0 mg/kg/injection, schedule: Q01DX005 (ip), vehicle: saline with Tween-80.
[3] abbreviates: dose: 200.0 mg/kg/injection, schedule: Q01DX005 (ip), vehicle: saline with Tween-80.
Setting [4] is: dose: 6.25 mg/kg/injection, schedule: Q01DX009 (ip), vehicle: saline with Tween-80.
[5] abbreviates: dose: 12.5 mg/kg/injection, schedule: Q01DX009 (ip), vehicle: saline with Tween-80.
The mark [6] stands for this setting: dose: 25.0 mg/kg/injection, schedule: Q01DX009 (ip), vehicle: saline with Tween-80.
The mark [7] stands for this setting: dose: 50.0 mg/kg/injection, schedule: Q01DX009 (ip), vehicle: saline.
[8] abbreviates: dose: 100.0 mg/kg/injection, schedule: Q01DX009 (ip), vehicle: saline.
Where [9] appears, read: dose: 200.0 mg/kg/injection, schedule: Q01DX009 (ip), vehicle: saline.
[10] abbreviates: dose: 12.5 mg/kg/injection, schedule: Q01DX009 (ip), vehicle: saline.
Setting [11] is: dose: 100.0 mg/kg/injection, schedule: Q04DX003 (ip), vehicle: saline.
Where [12] appears, read: dose: 200.0 mg/kg/injection, schedule: Q04DX003 (ip), vehicle: saline.
Where [13] appears, read: dose: 400.0 mg/kg/injection, schedule: Q04DX003 (ip), vehicle: saline.

Where “and” joins values, the source holds several entries; their conditions need not be identical. Identical values can stand only once. Inconclusive results and toxic doses are left out.

Take `CCOC(=O)C1=C(N)n2c(s/c(=C/c3ccc(N(C)C)cc3)c2=O)=C(C(=O)OCC)C1c1ccc(N(C)C)cc1` (stereo not given): the T/C by setting is: under setting [1], 101 % of control; under setting [2], 97 % of control; under setting [3], 99 % of control.

For the compound `O=Cc1ccc([N+](=O)[O-])s1`, the T/C is 99 % of control (dose: 3.13 mg/kg/injection, schedule: Q01DX009 (ip), vehicle: saline with Tween-80); 99 % of control and 118 % of control under setting [4]; 115 % of control under setting [5]; 123 % of control under setting [6]; 118 % of control (dose: 50.0 mg/kg/injection, schedule: Q01DX009 (ip), vehicle: saline with Tween-80).

Regarding `Cc1ccc2c(c1)N=Cc1ccccc1O2`, the T/C reads like this: (dose: 50.0 mg/kg/injection, schedule: Q01DX009 (ip), vehicle: saline + alcohol) 104 % of control; (dose: 100.0 mg/kg/injection, schedule: Q01DX009 (ip), vehicle: saline + alcohol) 110 % of control; (dose: 200.0 mg/kg/injection, schedule: Q01DX009 (ip), vehicle: saline + alcohol) 106 % of control.

As for `CN(C)NCCC#N`, the T/C is, setting by setting: under setting [7], 100 % of control; (dose: 66.0 mg/kg/injection, schedule: Q01DX009 (ip), vehicle: saline) 111 % of control; (dose: 75.0 mg/kg/injection, schedule: Q01DX009 (ip), vehicle: saline) 117 % of control; under setting [8], 100 % of control and 111 % of control; (dose: 150.0 mg/kg/injection, schedule: Q01DX009 (ip), vehicle: saline) 118 % of control; under setting [9], 86 % of control.

Turning to `CC1CNC(=S)O1` (stereo not given), the T/C by setting is: (dose: 50.0 mg/kg/injection, schedule: Q04DX003 (ip), vehicle: saline with Tween-80) 90 % of control; (dose: 100.0 mg/kg/injection, schedule: Q04DX003 (ip), vehicle: saline with Tween-80) 120 % of control; (dose: 200.0 mg/kg/injection, schedule: Q04DX003 (ip), vehicle: saline with Tween-80) 90 % of control; (dose: 400.0 mg/kg/injection, schedule: Q04DX003 (ip), vehicle: saline with Tween-80) 115 % of control.

Regarding `CCC1C2CC3C4N(C)c5ccc(Br)cc5C45CC(C2C5O)[N+]3(CC(O)CN2CCCCC2)C1O` (stereo not given), the T/C is, setting by setting: under setting [10], 106 % of control; (dose: 25.0 mg/kg/injection, schedule: Q01DX009 (ip), vehicle: saline) 115 % of control; under setting [7], 89 % of control and 93 % of control.

In the case of `COc1cc2cnccc2cc1O`, the T/C runs as follows: (dose: 6.25 mg/kg/injection, schedule: Q04DX003 (ip), vehicle: water) 97 % of control; (dose: 12.5 mg/kg/injection, schedule: Q04DX003 (ip), vehicle: water) 98 % of control; (dose: 25.0 mg/kg/injection, schedule: Q04DX003 (ip), vehicle: water) 118 % of control; (dose: 50.0 mg/kg/injection, schedule: Q04DX003 (ip), vehicle: water) 95 % of control; (dose: 100.0 mg/kg/injection, schedule: Q04DX003 (ip), vehicle: water) 98 % of control.

With `c1ccc(-c2csc3c4ccccc4c4ccccc4[n+]23)cc1`, the T/C was 100 % of control (dose: 0.5 mg/kg/injection, schedule: Q01DX009 (ip), vehicle: saline); 104 % of control (dose: 1.0 mg/kg/injection, schedule: Q01DX009 (ip), vehicle: saline); 118 % of control (dose: 2.0 mg/kg/injection, schedule: Q01DX009 (ip), vehicle: saline); 113 % of control (dose: 4.0 mg/kg/injection, schedule: Q01DX009 (ip), vehicle: saline); 100 % of control (dose: 8.0 mg/kg/injection, schedule: Q01DX009 (ip), vehicle: saline).

Turning to `NC(=O)C1(N2CCCCC2)CCN(CCCC(=O)c2ccc(F)cc2)CC1`, the T/C (dose: 37.5 mg/kg/injection, schedule: Q01DX009 (ip), vehicle: Klucel (hydroxypropylcellulose) (HPC)) is 107 % of control and the T/C (dose: 150.0 mg/kg/injection, schedule: Q01DX009 (ip), vehicle: Klucel (hydroxypropylcellulose) (HPC)) is 117 % of control.

In the case of `Cc1cc(-c2ccc(NC(=O)Nc3cccc(F)c3)c(C)c2)ccc1NC(=O)Nc1cccc(F)c1`, the T/C reads like this: under setting [1], 91 % of control; under setting [2], 86 % of control; under setting [3], 86 % of control.

As to `O=S(=O)(O)CNc1ccccc1`, the T/C is, setting by setting: under setting [11], 100 % of control; under setting [12], 109 % of control; under setting [13], 95 % of control.

On to `C1CSCCO1.[Cu+2].[O-][Cl+3]([O-])([O-])O`, for which the T/C was 97 % of control (dose: 6.25 mg/kg/injection, schedule: Q04DX003 (ip), vehicle: saline with Tween-80); 99 % of control (dose: 12.5 mg/kg/injection, schedule: Q04DX003 (ip), vehicle: saline with Tween-80); 108 % of control (dose: 25.0 mg/kg/injection, schedule: Q04DX003 (ip), vehicle: saline with Tween-80).

On to `NC1=NC(=O)/C(=C/c2ccccc2)S1`, for which the T/C runs as follows: under setting [7], 90 % of control; under setting [8], 100 % of control; under setting [9], 100 % of control.

As to `CC(=O)NC1(C(=O)O)CSSC1`, the T/C runs as follows: (dose: 12.5 mg/kg/injection, schedule: Q01DX005 (ip), vehicle: saline) 107 % of control; (dose: 25.0 mg/kg/injection, schedule: Q01DX005 (ip), vehicle: saline) 106 % of control; (dose: 25.0 mg/kg/injection, schedule: Q04DX003 (ip), vehicle: saline) 91 % of control; (dose: 50.0 mg/kg/injection, schedule: Q01DX005 (ip), vehicle: saline) 104 % of control; (dose: 50.0 mg/kg/injection, schedule: Q04DX003 (ip), vehicle: saline) 97 % of control; (dose: 100.0 mg/kg/injection, schedule: Q01DX005 (ip), vehicle: saline) 100 % of control. The T/C reads like this: under setting [11], 118 % of control; (dose: 200.0 mg/kg/injection, schedule: Q01DX005 (ip), vehicle: saline) 104 % of control; under setting [12], 114 % of control; (dose: 400.0 mg/kg/injection, schedule: Q01DX005 (ip), vehicle: saline) 97 % of control; under setting [13], 123 % of control.

In the case of `C1CC[N-]CC1.C1CC[N-]CC1.CS(C)=O.[Cl][Rh]([Cl])[Cl]`, the T/C is 150 % of control (dose: 8.3 mg/kg/injection, schedule: Q01DX009 (ip), vehicle: saline); 150 % of control and 155 % of control under setting [10]; 150 % of control (dose: 18.7 mg/kg/injection, schedule: Q01DX009 (ip), vehicle: saline).

Turning to `COc1cc(Br)cc(/C=C/[N+](=O)[O-])c1OC`, the T/C by setting is: under setting [4], 113 % of control; under setting [5], 118 % of control; under setting [6], 109 % of control.

With `Nc1ccc(N=Nc2ccccc2)c(N)n1`, the T/C (dose: 50.0 mg/kg/injection, schedule: Q04DX003 (ip), vehicle: Klucel (hydroxypropylcellulose) (HPC)) was 100 % of control and the T/C (dose: 100.0 mg/kg/injection, schedule: Q04DX003 (ip), vehicle: Klucel (hydroxypropylcellulose) (HPC)) was 100 % of control.

For `c1ccc(-c2ccc(-c3cn4ccsc4n3)cc2)cc1`, the T/C runs as follows: (dose: 100.0 mg/kg/injection, schedule: Q01DX001 (ip), vehicle: Klucel (hydroxypropylcellulose) (HPC)) 101 % of control; (dose: 200.0 mg/kg/injection, schedule: Q01DX001 (ip), vehicle: Klucel (hydroxypropylcellulose) (HPC)) 99 % of control; (dose: 400.0 mg/kg/injection, schedule: Q01DX001 (ip), vehicle: Klucel (hydroxypropylcellulose) (HPC)) 100 % of control.

For the origin of these results see PubChem BioAssay AID328 (DTP/NCI, 2004).
